# According to patent US4428950A, “(Hetarylphenoxy)-(phenylpiperazinyl)-propanols, their preparation and drugs containing these compounds” (BASF Aktiengesellschaft, priority 1981, dated 1984):
# Counter-ions that a name gives are not always drawn. Like-named read-outs stand apart in the source and are kept apart here.
# Legend:
# [1] = test system: orientation hypermotility; test: Sedative action (orientation hypermotility induced by a new environment, mice); format: in vivo, mouse (NMRI, female); conditions: for effect in respect of sedation, % of that of chlorpromazine: relative to chlorpromazine; for Sedative effect R.A. (relative activity): chlorpromazine = 1.00; for sedative-neuroleptic properties: according to Table 1
# Protocol: The substance was administered orally to 4-8 groups each comprising 3 female NMRI mice. The orientation hypermotility induced by a new environment is determined photoelectrically, 30 minutes after administration of the substance, over a period of 30 minutes. The ED 50%, ie. the dose which produces a 50% reduction in orientation hypermotility compared to placebo-treated control animals, is determined.
# histamine bronchospasm = test: Broncholytic action (histamine-induced bronchospasm, guineapigs under urethane narcosis); format: in vivo, guineapig (Pirbright white); conditions: guineapig
# Protocol: Male or female guineapigs (Pirbright white, weight 300-500 g) under urethane narcosis (1.5 g/kg administered intraperitoneally) are subjected to artificial respiration using a tracheal cannula. Bronchospasms are caused by intravenous injection of histamine dihydrochloride (1.0-4.64 μg/kg), and an antagonistic effect on these can be brought about by prior intravenous administration of the test substance. The spasms are recorded by the method of Konzett and Rossler (Naunyn Schmiedeberg's Arch. 195 (1940), 71), via inductive pressure sensors.
# blood pressure = test: Hypotensive action (blood pressure in carotid artery of rats under urethane narcosis); format: in vivo, rat (Sprague-Dawley); conditions: for Hypotensive effect R.A. (relative activity): chlorpromazine = 1.00; for Hypotensive effect R.A. (relative activity) / ED20 / Hypotensive effect ED 20%: rat; for comparison with chlorpromazine, taking into account the hypotensive effect / hypotensive action, doses compared with chlorpromazine: in words; for ED20: read-out: Hypotensive effect ED 20%; for quotient of the sedative effective dose and the hypotensive effective dose, times more advantageous than for chlorpromazine: relative to chlorpromazine
# Protocol: The blood pressure was measured in the carotid artery. The substance was administered either by introduction into a jugular vein (as an aqueous solution, at the rate of 1 ml/kg) or intraperitoneally as a suspension in tragacanth (at the rate of 10 ml/kg). The ED 20%, ie. the dose which produces a 20% lowering of the blood pressure, was determined from the linear regression of log dose (mg/kg) and relative lowering of the blood pressure (Δ%).
# catalepsy = test: Cataleptic action (front extremities on 8 cm high bar, rats); format: in vivo, rat (Sprague-Dawley, female); conditions: for Cataleptic effect R.A. (relative activity): chlorpromazine = 1.00; for ED50: ip, read-out: Cataleptic effect ED 50%; for effect in respect of catalepsy, % of that of chlorpromazine: relative to chlorpromazine
# Protocol: 30, 60, 120 and 240 minutes after intraperitoneal administration of the substance, female Sprague-Dawley rats were placed with the front extremities on an 8 cm high bar. If, because of postural rigidity, the animals remain in this position for longer than 15 seconds, they are regarded as cataleptic.
# [2] = Table 1, mouse, oral, dose producing 50% reduction in orientation hypermotility, read-out: Sedative effect ED 50%
# [3] = Table 1, rat, intraperitoneal, dose at which 50% of animals are cataleptic
# [4] = Table 2, sedative ED 50% vs hypotensive ED 20% i.p.
# [5] = ip, Table 2, i.p., dose which reduces the blood pressure by 20%
# [6] = Table 2, mouse, oral, dose which reduces the motility by 50%, read-out: Sedative effect ED 50%
# [7] = Table 2, sedative ED 50% vs hypotensive ED 20% i.v.
# [8] = iv, Table 2, i.v., dose which reduces the blood pressure by 20%
structure (smiles),measurement,setting,value
"COc1cccc(N2CCN(CC(O)COc3ccc(-n4cncn4)cc3)CC2)c1 (stereo not drawn) [Example 1, 1-[4-(1,2,4-Triazol-1-yl)-phenoxy]-3-[4-(3-methoxyphenyl)-piperazin-1-yl]-propan-2-ol]",ED50,"[1]; Mus musculus, po, read-out: sedative effect ED 50%",7.6 mg/kg
same,sedative action,[1]; in words,relatively slight sedative action
same,"effect in respect of sedation, % of that of chlorpromazine",[1],28%
same,inhibition of histamine bronchospasm (average),histamine bronchospasm; 0.1 mg/kg intravenously,87%
same,broncholytic effect on the histamine bronchospasm,histamine bronchospasm; in words,strong broncholytic effect
"OC(COc1ccc(-n2cncn2)cc1)CN1CCN(c2ccc(F)cc2)CC1 (stereo not drawn) [Example 2, 1-[4-(1,2,4-Triazol-1-yl)-phenoxy]-3-[4-(4-fluorophenyl)-piperazin-1-yl]-propan-2-ol]",Hypotensive effect R.A. (relative activity),"blood pressure; Table 1, i.v.",0.08
same,Q (quotient of the sedative effective dose and the hypotensive effective dose),"blood pressure; Table 1, hypotensive dose i.v.",8.0
same,"comparison with chlorpromazine, taking into account the hypotensive effect",blood pressure,clearly superior to chlorpromazine
same,ED20,"blood pressure; iv, Table 1, i.v., dose producing 20% lowering of blood pressure",0.316 mg/kg
same,"quotient of the sedative effective dose and the hypotensive effective dose, times more advantageous than for chlorpromazine",blood pressure,10 times
same,Sedative effect R.A. (relative activity),"[1]; Table 1, mouse, oral",0.84
same,ED50,[1]; [2],2.52 mg/kg
same,sedative-neuroleptic properties,[1]; in words,powerful sedative-neuroleptic properties
same,"effect in respect of sedation, % of that of chlorpromazine",[1],84%
same,Cataleptic effect R.A. (relative activity),"catalepsy; Table 1, rat, intraperitoneal",0.43
same,ED50,catalepsy; [3],10 mg/kg
same,"effect in respect of catalepsy, % of that of chlorpromazine",catalepsy,43%
"OC(COc1ccc(-n2ccnc2)cc1)CN1CCN(c2ccc(F)cc2)CC1 (stereo not drawn) [Example 3, 1-[4-(Imidazol-1-yl)-phenoxy]-3-[4-(4-fluorophenyl)-piperazin-1-yl]-propan-2-ol]",Hypotensive effect R.A. (relative activity),"blood pressure; Table 1, i.p.",0.02
same,Q (quotient of the sedative effective dose and the hypotensive effective dose),"blood pressure; Table 1, hypotensive dose i.p.",0.3
same,"comparison with chlorpromazine, taking into account the hypotensive effect",blood pressure,clearly superior to chlorpromazine
same,ED20,"blood pressure; ip, Table 1, i.p., dose producing 20% lowering of blood pressure",10 mg/kg
same,"quotient of the sedative effective dose and the hypotensive effective dose, times more advantageous than for chlorpromazine",blood pressure,43 times
same,Sedative effect R.A. (relative activity),"[1]; Table 1, mouse, oral",0.77
same,ED50,[1]; [2],2.75 mg/kg
same,sedative-neuroleptic properties,[1]; in words,powerful sedative-neuroleptic properties
same,"effect in respect of sedation, % of that of chlorpromazine",[1],77%
same,Cataleptic effect R.A. (relative activity),"catalepsy; Table 1, rat, intraperitoneal",0.2
same,ED50,catalepsy; [3],21.5 mg/kg
same,"effect in respect of catalepsy, % of that of chlorpromazine",catalepsy,20%
"COc1ccccc1N1CCN(CC(O)COc2ccccc2-c2ccnc(N)n2)CC1 (stereo not drawn) [Example 5, 1-[2-(2-Aminopyrimidin-4-yl)-phenoxy]-3-[4-(2-methoxyphenyl)-piperazin-1-yl]-propan-2-ol]",Hypotensive effect R.A. (relative activity),"blood pressure; Table 2, i.p.",2.06
same,Q,blood pressure; [4],413
same,"hypotensive action, doses compared with chlorpromazine",blood pressure; Table 2,at lower doses than chlorpromazine
same,ED20,blood pressure; [5],0.0795 mg/kg
same,doses at which sedative side-effect is observed relative to hypotensive doses,[1]; Table 2,"400-1,300 times greater"
same,Sedative effect R.A. (relative activity),"[1]; Table 2, mouse, oral",0.06
same,ED50,[1]; [6],32.8 mg/kg
"COc1ccccc1N1CCN(CC(O)COc2ccccc2-c2cc[nH]n2)CC1 (stereo not drawn) [Example 10, 1-[2-(Pyrazol-3-yl)-phenoxy]-3-[4-(2-methoxyphenyl)-piperazin-1-yl]-propan-2-ol.HCl]",Hypotensive effect R.A. (relative activity),"blood pressure; Table 2, i.v.",0.79
same,Q,blood pressure; [7],442
same,"hypotensive action, doses compared with chlorpromazine",blood pressure; Table 2,at lower doses than chlorpromazine
same,ED20,blood pressure; [8],0.0328 mg/kg
same,doses at which sedative side-effect is observed relative to hypotensive doses,[1]; Table 2,"400-1,300 times greater"
same,Sedative effect R.A. (relative activity),"[1]; Table 2, mouse, oral",0.15
same,ED50,[1]; [6],14.5 mg/kg
"COc1ccccc1N1CCN(CC(O)COc2cccc(-c3cc[nH]n3)c2)CC1 (stereo not drawn) [Example 15, 1-[3-(Pyrazol-3-yl)-phenoxy]-3-[4-(2-methoxyphenyl)-piperazin-1-yl]-propan-2-ol.3HCl]",Hypotensive effect R.A. (relative activity),"blood pressure; Table 2, i.v.",1.39
same,Q,blood pressure; [7],"1,342"
same,"hypotensive action, doses compared with chlorpromazine",blood pressure; Table 2,at lower doses than chlorpromazine
same,ED20,blood pressure; [8],0.0187 mg/kg
same,doses at which sedative side-effect is observed relative to hypotensive doses,[1]; Table 2,"400-1,300 times greater"
same,Sedative effect R.A. (relative activity),"[1]; Table 2, mouse, oral",0.08
same,ED50,[1]; [6],25.1 mg/kg
"CN(C)CCCN1c2ccccc2Sc2ccc(Cl)cc21 [chlorpromazine, reference compound]",Hypotensive effect R.A. (relative activity),"blood pressure; Table 1, i.p.",1.0
same,Hypotensive effect R.A. (relative activity),"blood pressure; Table 1, i.v.",1.0
same,Q (quotient of the sedative effective dose and the hypotensive effective dose),"blood pressure; Table 1, hypotensive dose i.v.",81.1
same,Hypotensive effect ED 20%,"blood pressure; Table 1, i.p., dose producing 20% lowering of blood pressure",0.164
same,Hypotensive effect ED 20%,"blood pressure; Table 1, i.v., dose producing 20% lowering of blood pressure",0.026
same,Hypotensive effect R.A. (relative activity),"blood pressure; Table 2, i.p.",1.00
same,Hypotensive effect R.A. (relative activity),"blood pressure; Table 2, i.v.",1.00
same,Q,blood pressure; [4],13
same,Q,blood pressure; [7],81
same,ED20,blood pressure; [5],0.164 mg/kg
same,ED20,blood pressure; [8],0.026 mg/kg
same,Sedative effect R.A. (relative activity),"[1]; Table 1, mouse, oral",1.0
same,Sedative effect ED 50%,"[1]; Table 1, mouse, oral, dose producing 50% reduction in orientation hypermotility",2.11
same,Sedative effect R.A. (relative activity),"[1]; Table 2, mouse, oral",1.00
same,ED50,catalepsy; Rattus norvegicus,4.3 mg/kg
same,Cataleptic effect R.A. (relative activity),"catalepsy; Table 1, rat, intraperitoneal",1.0
